Test results taken from publication PMC9181852, “In Vivo and In Vitro Biological Evaluation and Molecular Docking Studies of Compounds Isolated from Micromeria biflora (Buch. Ham. ex D.Don) Benth” (Molecules, 2022).

Columns and labels:
Hot plate analgesic test = format: in vivo, mice (Balb/c); settings: dose 10 mg/kg
Description: (§1) Healthy mice (Balb/c) with weight ranging from 20 to 22 g and ages 9 to 10 weeks were used in this screening model. The grown animals were provided with standard laboratory conditions such as standard food and water ad libitum. The in vivo biological screening test was performed at the Department of Veterinary Medicine, College of Agriculture and Veterinary Medicine, Qassim University Buraydah, Saudi Arabia, as well as Swabi University, KP, Pakistan, according to published procedures.
The analgesic effect of salicylalazine isolated from M. biflora was obtained with help of a hot plate according to the published method. The animals were distributed into different groups according to the previously reported method. A preliminary screening test was performed on the animals using a hot plate (Harvard apparatus) sustained at 55 ± 2 °C. […] Group I (positive control) was administered with the standard drug, while Group II (negative control) was administered with normal saline. The other groups of animals were administered with 2.5, 5, 10, 15, and 20 mg/kg (PO). […] To avoid tissue damage, a cut-off time of 30 s was used for every animal. The latency time was recorded for all groups (n = 6) at consistent intervals (30, 60, 90, and 120 min).

[1] = Traction muscle relaxation model; format: in vivo, mice (Balb/c); settings: dose 1 mg/kg
Description: as §1
A traction screening model was adapted to identify the relaxation of muscle for salicylalazine isolated from M. biflora according to the standard method. The traction model was considered by using metallic wires covered with rubber, and then the wires were linked with each other using a stand around 60 cm upstairs of the lab bench. The animals were distributed into different groups, with each group comprising six animals (n = 6). The various groups of animals were administered water, diazepam, and salicylalazine at different doses. After administration, all groups of animals were subjected to traction screening after 30, 60, and 90 min. […] Traction testing was repeatedly performed to calculate the muscle relaxant ability of salicylalazine as per the reported method.

[2] = Inclined plane muscle relaxation model; format: in vivo, mice (Balb/c); settings: dose 1 mg/kg
Description: as §1
An inclined plane screening procedure was adapted to identify the muscle relaxation effects of salicylalazine isolated from M. biflora according to a reported procedure. The inclined plane used in screening contained two plywood boards, and these boards were connected, where one board was at 60 0 from the base while the other one was aligned from the base. Various groups of animals were distributed into several groups; each group comprised six animals (n = 6). Animals in each group were administered water (10 mL/kg), standard drug (diazepam, 1 mg/kg), and salicylalazine at different doses of 2.5, 5, 10, 15, and 20 mg/kg, i.p. After various time intervals, such as 30, 60, and 90 min post-administration, animals were allowed on the higher part of the inclined plane for 30 s to drop or hang.

Open field sedative test = format: in vivo, mice (Balb/c); settings: dose 0.5 mg/kg, 30 min after administration
Description: as §1
The sedative potential of salicylalazine isolated from M. biflora was assessed as per the reported procedure. The animals were divided into different groups, as designated above. The apparatuses used in this screening contained an area of white wood with a 150 cm diameter bordered by stainless steel walls and was separated into 19 squares by black lines. Then, the open field apparatus was positioned inside the light and sound-reduced room. The different groups of animals were administered distilled water, diazepam, and salicylalazine at different doses. Thirty minutes after administration, all groups of animals were permitted to move from the center of the design box. […] Statistical calculations were performed by counting the number of lines crossed by every animal.

A498 = experiment: Anticancer MTT assay, A498; format: cell-based; settings: Homo sapiens, 24 h
Description: (§2) The MTT assay was used to assess the cytotoxicity of salicylalazine isolated from M. biflora as per the previously documented method. For the MTT assay, Gibco BRL was combined with 100 µg/mL of penicillin sodium salts, 10% FBS (Gibco), and sodium carbonate (2 mg/mL). The prepared medium was used to keep three human cancer cell lines: human hepatoma (HepG2), human A498, and renal NCI-h226 non-small cell lung). Mouse hepatocytes, including HepG2 and HepG-R, were planted in 96-well plates. The cell lines were preserved with salicylalazine (1.5–100 μM), hatched for 24 h, and then they were tracked using the MTT procedure^14. This method was used for all tested cell lines. The IC50 value of salicylalazine in different cell lines was calculated from the concentration-effect curves. The standard drug used in this experiment was paclitaxel.

NCI-H226 = experiment: Anticancer MTT assay, NCI-H226; format: cell-based; settings: Homo sapiens, 24 h
Description: as §2

HepG2 = experiment: Anticancer MTT assay, HepG2; format: cell-based; settings: Homo sapiens, 24 h
Description: as §2

MDR2780AD = experiment: Anticancer MTT assay, MDR2780AD; format: cell-based; settings: 24 h

COc1cccc(C2(O)CCCCC2CN(C)C)c1 (stereo not drawn) [Tramadol, reference compound]
Latency time on hot plate (Hot plate analgesic test; 30 min): 24.30 ± 0.07 s
Latency time on hot plate (Hot plate analgesic test; 60 min): 25.90 ± 0.08 s
Latency time on hot plate (Hot plate analgesic test; 90 min): 24.80 ± 0.14 s
Latency time on hot plate (Hot plate analgesic test; 120 min): 24.68 ± 0.40 s

CN1C(=O)CN=C(c2ccccc2)c2cc(Cl)ccc21 [Diazepam, reference compound]
Traction Test (%) ([1]; 30 min): 100 ± 0.00%
Traction Test (%) ([1]; 60 min): 100 ± 0.00%
Traction Test (%) ([1]; 90 min): 100 ± 0.00%
Inclined Plane Test (%) ([2]; 30 min): 100 ± 0.00%
Inclined Plane Test (%) ([2]; 60 min): 100 ± 0.00%
Inclined Plane Test (%) ([2]; 90 min): 100 ± 0.00%
No of Lines Crossed (Open field sedative test): 9.01 ± 0.51

CC(=O)O[C@H]1C(=O)[C@@]2(C)[C@H]([C@H](OC(=O)c3ccccc3)[C@]3(O)C[C@H](OC(=O)[C@H](O)[C@@H](NC(=O)c4ccccc4)c4ccccc4)C(C)=C1C3(C)C)[C@]1(OC(C)=O)CO[C@@H]1C[C@@H]2O [Paclitaxel, reference compound]
IC50 (A498): 95.23 ± 0.23 µM
IC50 (NCI-H226): 61.29 ± 0.31 µM
IC50 (HepG2): 7.51 ± 0.3 µM
IC50 (MDR2780AD): 0.18 ± 0.008 µM
